PMC6274922, “Defined Small Molecules Produced by Himalayan Medicinal Plants Display Immunomodulatory Properties” (International Journal of Molecular Sciences, 2018)
Converted amounts (≈) assume the structure as drawn.

How the values were obtained:
in vitro = settings: human
Experimental: (§1) The immortalized non-malignant human cholangiocyte cell line H69 is a SV40-transformed human bile duct epithelial cell line originally derived from a normal liver harvested for transplantation. […] Cytotoxicity screening of the test compounds against the H69 cell line was performed using an xCELLigence SP system (ACEA Biosciences Inc., San Diego, CA, USA) as described by us previously. All experiments were carried out as per the manufacturer’s instructions with 0.25–60 min read intervals using the real time cell assay (RTCA) software (ACEA Biosciences Inc., USA). All assays were conducted in triplicate. Inter-well spaces were filled with 100 µL of culture medium or PBS to prevent evaporation. The E-plates containing cells were seeded at 5000 cells/well and incubated overnight at 37 °C with 5% CO2. The cells were then treated with prepared concentrations (50, 100, 500 µg/mL) of the test compounds and the viability of the cells was monitored continually for 24 h.
(§2) We determined the IC50 values of test compounds based on the normalised cell index (nCI) for cells, as described previously. Briefly, the 24 h nCI relative to the negative DMSO treated controls (deemed 100%) on the y-axis was plotted against the log concentration value x-axis.

[1] = system: immortalized non-cancerous H69 human cholangiocyte cell line; assay: Cytotoxicity by xCELLigence RTCA system
Experimental: as §1, §2

[2] = system: DC2.4 murine dendritic cell line; type: cell-based; settings: for Median Fluorescence Intensity (MFI) of surface MHC-I expression: representative FACS plots, DC2.4 cells, media only control MFI 732
[3] = system: A431 epithelial cancer cell lines; design: method as in PMID 9584334; settings: in vitro; cited from earlier work
HL60 = system: HL60; design: method as in PMID 9584334; settings: in vitro; cited from earlier work
[4] = system: DC2.4 murine dendritic cell line; assay: Gene expression analysis by RT-qPCR in DC2.4 cells; type: cell-based, mouse; settings: for modulation of gene expression, in words: DC2.4 cells, mRNA correlated with FACS RFI (Figure 3)
Experimental: The following day, cells were harvested and 20,000 live cells from each condition were sorted by FACS into RLT buffer and RNA extracted for mRNA analysis by RT-qPCR. The relative gene expression for each gene was calculated for each compound and compared to the media control. We then correlated gene expression with protein expression represented by the FACS RFI (Figure 3). […] The SUM of the changes for all genes and proteins relative to the media-only control is summarized in the bottom right corner of Figure 3 SUM.
DC2.4 cells were co-cultured overnight with test compounds as described above. The following day, cells were harvested and 20,000 live cells from each condition were sorted by FACS into RLT buffer and stored at −70 °C. On the day of extraction, frozen cell lysates were thawed quickly on ice and mRNA was extracted using the RNEasy micro kit (Qiagen, Chadstone Centre, VIC, Australia) according to the manufacturer’s instructions. cDNA was synthesized using oligo-dT and AMVRT (Promega, Sydney, Australia) according to the manufacturer’s instructions. Gene expression was measured using individual Taqman gene expression assays (Applied Biosystems, Foster City, CA, USA) and Platinum Taq polymerase (Life Technologies, Carlsbad, CA, USA) in a 15 μL volume reaction using a Rotorgene 3000 PCR machine (Corbett Research, Mortlake, Australia) with the following conditions: 2 min at 50 °C for calibration of fluorescence gain values, then denaturing at for 2 min at 95 °C, followed by 45 cycles of 5 s at 95 °C and 30 s at 60 °C. Gene expression was quantified relative to a standard curve generated from a titration of cloned cDNA and relative gene expression was calculated by dividing the expression value of the test sample by that of the cells grown in media only. All assays were conducted in triplicate.

lung carcinoma (A549) = system: lung carcinoma (A549); design: method as in PMID 29555944; settings: cited from earlier work
HT-29 cancer cell lines = system: HT-29 cancer cell lines; design: method as in PMID 29555944; settings: cited from earlier work
[5] = system: multi-drug resistant Plasmodium falciparum; settings: cited from earlier work
[6] = system: DC2.4 murine dendritic cell line; assay: Combined FACS + PCR score of immunomodulation in DC2.4 cells; type: cell-based, mouse
Experimental: The following day, cells were harvested and 20,000 live cells from each condition were sorted by FACS into RLT buffer and RNA extracted for mRNA analysis by RT-qPCR. The relative gene expression for each gene was calculated for each compound and compared to the media control.
DC2.4 cells (4000 cells in exponential phase/200 µL) were cultured in 96-well flat bottom plates overnight with a titration of the test compound in media (stock concentration of 1 mg/mL and further titrated in tissue culture media at 4 mid-log dilutions starting at 100 µg/mL) or media only (modified DMEM, 50 µM 2-mercaptoethanol and 216 mg/L L-glutamine, 10% heat-inactivated FCS). Each compound was tested twice, in replicate assays. […] The RFI (relative fluorescence intensity) for each parameter was calculated by dividing the median fluorescence intensity (MFI) of the test sample by that of the control (media-only) samples.
DC2.4 cells were co-cultured overnight with test compounds as described above. […] Gene expression was quantified relative to a standard curve generated from a titration of cloned cDNA and relative gene expression was calculated by dividing the expression value of the test sample by that of the cells grown in media only. […]

CC#CC#C/C=C1\C=CC2(CCCO2)O1 (centres unmarked) [Compound 5, (E)-spiroether]
IC50 at 24 h (in vitro): < 1 µg/mL
cell death ([1]; H69 cells, from 6 h with 100 µg/mL): 96.5%

COc1c2ccoc2cc2oc(=O)ccc12 [Compound 13, bergapten]
Median Fluorescence Intensity (MFI) of surface MHC-I expression [2]: 304
anti-proliferative activity, in words [3]: anti-proliferative activity
anti-proliferative activity, in words (HL60): anti-proliferative activity
IC50 at 24 h (in vitro): 126 µg/mL (≈ 585 µM)
modulation of gene expression, in words [4]: suppression of expression of some genes, and notably MHC-I at both the gene and protein level

COc1cc2c(cc1O)[C@@H]1Cc3ccc(OC)c(O)c3CN1CC2 [Compound 10, scoulerine]
cytotoxic activity, in words (lung carcinoma (A549)): significant cytotoxic activity
Median Fluorescence Intensity (MFI) of surface MHC-I expression [2]: 1582
cytotoxic activity, in words (HT-29 cancer cell lines): significant cytotoxic activity
antimalarial activity, in words [5]: potent antimalarial drug lead compound
modulation of gene expression, in words [4]: strong up-regulator of several important genes including MHC-I, CD80 and CD86

O=c1cc(-c2ccc(O)c(O)c2)oc2cc(O)cc(O)c12 [Compound 6, luteolin]
IC50 at 24 h (in vitro): 30 µg/mL (≈ 105 µM)

protopine [Compound 8]
FACS SUM ([2]; sum of the RFI of the 7 surface markers): 9.95
Ave. ([6]; average of FACS and PCR values): 1.43
SUM FACS + PCR ([6]; sum of all FACS RFI and PCR relative expression values): 19.96
IC50 (cytotoxicity) [1]: 9 µg/mL
cell toxicity ([1]; H69 cells, at 24 h): 68%
cell toxicity ([1]; H69 cells, from 6 h): 23%
PCR SUM ([4]; sum of the relative expression of the 7 genes): 10.01
